The results in this text go back to PMC7582767, “Protective Effect of CXCR4 Antagonist CX807 in a Rat Model of Hemorrhagic Stroke” (International Journal of Molecular Sciences, 2020).

The structures appear in SMILES notation.

In the assay the target is T1, CXCR4 (C-X-C chemokine receptor type 4) (Homo sapiens, UniProt P61073).
T1 construct: purified membrane fractions of HEK293 cells overexpressing CXCR4
The experiment in a line: […]CXCL12 radioligand displacement on CXCR4 membranes. In kind it is binding. (Displacement assays read how much labelled ligand stays bound in the presence of the test substance.)

T1 sequence (P61073 whole entry): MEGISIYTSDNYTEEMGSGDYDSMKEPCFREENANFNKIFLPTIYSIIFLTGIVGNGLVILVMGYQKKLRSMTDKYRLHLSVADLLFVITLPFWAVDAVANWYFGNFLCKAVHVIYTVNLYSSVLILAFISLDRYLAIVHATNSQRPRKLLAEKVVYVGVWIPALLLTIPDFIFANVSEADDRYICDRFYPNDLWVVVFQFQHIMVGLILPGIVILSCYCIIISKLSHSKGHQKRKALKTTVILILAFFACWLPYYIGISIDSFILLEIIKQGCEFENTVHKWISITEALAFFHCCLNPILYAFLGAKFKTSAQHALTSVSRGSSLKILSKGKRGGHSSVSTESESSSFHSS

Consider `Cc1cc(NC2CCN(C(=O)CCNCC(=O)O)CC2)nc(NCc2nc(CCCNCCCNC3CCCCC3)co2)n1` [CX807], for which the IC50 (usually the midpoint of a concentration-inhibition curve) was found to be 0.0654 ± 0.0118 µM.
